Where a name gives a salt, the structure may show the parent alone.
target: T1, PAF receptor (Oryctolagus cuniculus, UniProt G1TEI7); assay: PAF receptor binding assay ([3H]C18-PAF, rabbit platelet membranes); conditions: inhibition of specific binding of 0.6 nM [3H]C18-PAF to rabbit platelet membranes, 60 min, room temperature; Ki calculated from IC50 by Cheng and Prusoff; read-out: PAF Receptor Binding Activity K1
T1 construct: platelet membranes where prepared by centrifugation and washing; tissue Pel-Freez (Rogers, AR) (whole rabbit blood); host or cells: rabbit platelet membranes
T1 sequence (G1TEI7 1-342): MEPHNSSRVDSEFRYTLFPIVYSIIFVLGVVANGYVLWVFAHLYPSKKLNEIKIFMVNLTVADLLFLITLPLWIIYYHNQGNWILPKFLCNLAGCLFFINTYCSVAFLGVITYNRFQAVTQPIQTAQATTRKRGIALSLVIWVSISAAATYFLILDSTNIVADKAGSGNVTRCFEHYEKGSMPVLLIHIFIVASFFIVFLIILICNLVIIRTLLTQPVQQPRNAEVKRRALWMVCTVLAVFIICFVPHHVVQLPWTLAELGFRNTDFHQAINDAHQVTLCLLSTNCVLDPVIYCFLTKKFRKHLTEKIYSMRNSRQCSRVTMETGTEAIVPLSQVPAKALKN
Method: The ability of representative compounds of the present invention to inhibit PAF activity was determined in an in vitro test using the following method.
Citrated whole rabbit blood was obtained from Pel-Freez (Rogers, AR). Rabbit platelets where prepared by centrifugation and washing. The platelets where lysed by freeze-thawing and sonication; platelet membranes where prepared by centrifugation and washing. Final membrane preparations where stored frozen in 10 mM Tris/5 mM MgCl2 /2 mM EDTA (TME buffer, pH 7.0) with 0.25 M sucrose added for membrane stabilization.
The final volume of the assay was 100 μl. The assay was conducted in Millititre-GV™ (Millipore Corp.) filtration plates; incubation time was for 60 minutes at room temperature (22°-23° C.). "Specific binding" was operationally defined as the arithmetic difference between "total binding" of 0.6 nM [^3 H]C18 -PAF (in the absence of added PAF) and "nonspecific binding" (in the presence of 1 μM PAF). After the prescribed incubation, platelet membranes where filtered under vacuum and washed with 1 millilitre of "binding buffer". The filters was dried and removed. The bound radioactivity was quantitated with a Berthold TLC-Linear Analyzer model LB2842.
Experiments where repeated at least once.

SMILES | Ki
COc1ccc(-c2ccc3c(C(=O)c4ccn5c4CSC5c4cccnc4)cn(C(=O)N(C)C)c3c2)cc1 (centres unmarked) [Example 40, 3-(Pyridin-3-yl)-7-[1-N,N-dimethylcarbamoyl-6-(4-methoxyphenyl)indol-3-ylcarbonyl]-1H,3H-pyrrolo[1,2-c]thiazole] | 26 nM
CC(C)(C)OC(=O)NCCn1cc(C(=O)c2ccn3c2CSC3c2cccnc2)c2ccc(-c3ccc(F)cc3)cc21 (centres unmarked) [Example 57] | 38 nM
NCCn1cc(C(=O)c2ccn3c2CSC3c2cccnc2)c2ccc(-c3ccc(F)cc3)cc21 (centres unmarked) [Example 70, 3-(Pyridin-3-yl)-7-[1-(2-aminoethyl)-6-(4-fluorophenyl)indol-3-ylcarbonyl]-1H,3H-pyrrolo[1,2-c]thiazole Hydrochloride] | 2.6 nM

same assay, conditions: read-out: PAF Receptor Binding Activity K1

SMILES | Ki
CC1(C)SC(c2cccnc2)n2ccc(C(=O)c3c[nH]c4cc(-c5ccc(F)cc5)ccc34)c21 (centres unmarked) [Example 36, 1,1-Dimethyl-3-(pyridin-3-yl)-7-[6-(4-fluorophenyl)indol-3-ylcarbonyl]-1H,3H-pyrrolo[1,2-c]thiazole] | 1100 nM
NC(=O)n1cc(C(=O)c2ccn3c2CSC3c2cccnc2)c2ccc(OCc3ccccc3)cc21 (centres unmarked) [Example 37, 3-(Pyridin-3-yl)-7-(1-carbamoyl-6-phenylmethoxyindol-3-ylcarbonyl)-1H,3H-pyrrolo[1,2-c]thiazole] | 10 nM
COc1ccc(-c2ccc3c(C(=O)c4ccn5c4CSC5c4cccnc4)c[nH]c3c2)cc1 (centres unmarked) [Example 38, 3-(Pyridin-3-yl)-7-[6-(4-methoxyphenyl)indol-3-yl]carbonyl-1H,3H-pyrrolo[1,2-c]thiazole] | 1000 nM
O=C(c1ccn2c1CSC2c1cccnc1)c1c[nH]c2cc(-c3cccnc3)ccc12 (centres unmarked) [Example 41] | 2000 nM
CNC(=O)n1cc(C(=O)c2ccn3c2CSC3c2cccnc2)c2ccc(-c3ccc(OC)cc3)cc21 (centres unmarked) [Example 43, 3-(Pyridin-3-yl)-7-[1-N-methylcarbamoyl-6-(4-methoxyphenyl)indol-3-ylcarbonyl]-1H,3H-pyrrolo[1,2-c]thiazole] | 26 nM
CN(C)C(=O)n1cc(C(=O)c2ccn3c2CSC3c2ccc[n+]([O-])c2)c2ccccc21 (centres unmarked) [Example 44, 3-(1-Oxide-pyridin-3-yl)-7-(1-N,N-dimethylcarbamoylindol-3-ylcarbonyl)-1H,3H-pyrrolo[1,2-c]thiazole] | 40 nM
COc1ccc(-c2ccc3c(C(=O)c4ccn5c4CSC5c4ccc[n+]([O-])c4)cn(C(=O)N(C)C)c3c2)cc1 (centres unmarked) [Example 45, 3-(1-Oxide-pyridin-3-yl)-7-[1-N,N-dimethylcarbamoyl-6-(4-methoxyphenyl)indol-3-ylcarbonyl]-1H,3H-pyrrolo[1,2-c]thiazole] | 4.1 nM
COC(=O)CCn1cc(C(=O)c2ccn3c2CSC3c2cccnc2)c2ccc(-c3ccc(F)cc3)cc21 (centres unmarked) [Example 46, 3-(Pyridin-3-yl)-7-[1-(2-carbomethoxyethyl)-6-(4-fluorophenyl)indol-3-ylcarbonyl]-1H,3H-pyrrolo[1,2-c]thiazole] | 10 nM
O=C(c1ccn2c1CSC2c1cccnc1)c1c[nH]c2cc(Cl)ccc12 (centres unmarked) [Example 47, 3-(Pyridin-3-yl)-7-(6-chloroindol-3-ylcarbonyl)-1H,3H-pyrrolo[1,2-c]thiazole] | 590 nM
COc1cc(-c2ccc3c(C(=O)c4ccn5c4CSC5c4cccnc4)cn(C(=O)N(C)C)c3c2)cc(OC)c1OC (centres unmarked) [Example 48, 3-(Pyridin-3-yl)-7-[1-N,N-dimethylcarbamoyl-6-(3,4,5-trimethoxyphenyl)indol-3-ylcarbonyl]-1H,3H-pyrrolo[1,2-c]thiazole] | 8 nM
CS(=O)(=O)n1cc(C(=O)c2ccn3c2CSC3c2cccnc2)c2ccc(-c3ccc(F)cc3)cc21 (centres unmarked) [Example 51, 3-(Pyridin-3-yl)-7-[1-methanesulfonyl-6-(4-fluorophenyl)indol-3-ylcarbonyl]-1H,3-pyrrolo[1,2-c]thiazole] | 120 nM
CN(C)C(=O)n1cc(C(=O)c2ccn3c2CSC3c2cccnc2)c2ccc(-c3ccccc3)cc21 (centres unmarked) [Example 52, 3-(Pyridin-3-yl)-7-(1-N,N-dimethylcarbamoyl-6-phenylindol-3-ylcarbonyl)-1H,3H-pyrrolo[1,2-c]thiazole Hydrochloride] | 16 nM
CN(C)C(=O)Cn1cc(C(=O)c2ccn3c2CSC3c2cccnc2)c2ccc(-c3ccc(F)cc3)cc21 (centres unmarked) [Example 53, 3-(Pyridin-3-yl)-7-[1-(2-N,N-dimethylcarbamoylmethyl)-6-(4-fluorophenyl)indol-3-ylcarbonyl]-1H,3H-pyrrolo[1,2-c]thiazole] | 0.7 nM
CN(C)C(=O)n1cc(C(=O)c2ccn3c2CSC3c2ccc[n+]([O-])c2)c2ccc(-c3ccccc3)cc21 (centres unmarked) [Example 54, 3-(1-Oxide-pyridin-3-yl)-7-(1-N,N-dimethylcarbamoyl-6-phenylindol-3-ylcarbonyl)-1H,3H-pyrrolo[1,2-c]thiazole hydrochloride] | 17 nM
Cn1cc(C(=O)c2ccn3c2CSC3c2ccc[n+]([O-])c2)c2ccc(OCc3ccccc3)cc21 (centres unmarked) [Example 58, 3-(1-Oxide-pyridin-3-yl)-7-(1-methyl-6-phenylmethoxyindol-3-ylcarbonyl)-1H,3H-pyrrolo[1,2-c]thiazole] | 49 nM
CN(C)S(=O)(=O)n1cc(C(=O)c2ccn3c2CSC3c2ccc[n+]([O-])c2)c2ccc(-c3ccc(F)cc3)cc21 (centres unmarked) [Example 60, 3-(1-Oxide-pyridin-3-yl)-7-[1-N,N-dimethylsulfamyl-6-(4-fluorophenyl)indol-3-ylcarbonyl]-1H,3H-pyrrolo[1,2-c]thiazole] | 210 nM
O=C(c1ccn2c1CSC2c1cccnc1)c1cn(S(=O)(=O)c2ccccc2)c2cc(-c3ccc(F)cc3)ccc12 (centres unmarked) [Example 61, 3-(Pyridin-3-yl)-7-[1-phenylsulfonyl-6-(4-fluorophenyl)indol-3-ylcarbonyl]-1H,3H-pyrrolo[1,2-c]thiazole] | 1100 nM
O=C(c1ccn2c1CSC2c1cccnc1)c1cn(C(=O)NCCO)c2cc(-c3ccc(F)cc3)ccc12 (centres unmarked) [Example 62, 3-(Pyridin-3-yl)-7-[1-N-(2-hydroxyethyl)carbamoyl-6-(4-fluorophenyl)indol-3-ylcarbonyl]-1H,3H-pyrrolo[1,2-c]thiazole] | 7.4 nM
O=C(c1ccn2c1CSC2c1cccnc1)c1c[nH]c2cc(Br)ccc12 (centres unmarked) [Example 63, 3-(Pyridin-3-yl)-7-(6-bromoindol-3-ylcarbonyl)-1H,3H-pyrrolo[1,2-c]thiazol] | 580 nM
CN(C)C(=O)n1cc(C(=O)c2ccn3c2CSC3c2cccnc2)c2ccc(Cl)cc21 (centres unmarked) [Example 65, 3-(Pyridin-3-yl)-7-(1-N,N-dimethylcarbamoyl-6-chloroindol-3-ylcarbonyl)-1H,3H-pyrrolo[1,2-c]thiazole] | 89 nM
CN(C)C(=O)n1cc(C(=O)c2ccn3c2CSC3c2ccc[n+]([O-])c2)c2ccc(Cl)cc21 (centres unmarked) [Example 66, 3-(1-Oxide-Pyridin-3-yl)-7-(1-N,N-dimethylcarbamoyl-6-chloroindol-3-ylcarbonyl)-1H,3H-pyrrolo[1,2-c]thiazole] | 38 nM
NNC(=O)n1cc(C(=O)c2ccn3c2CSC3c2cccnc2)c2ccc(-c3ccc(F)cc3)cc21 (centres unmarked) [Example 69, 3-(Pyridin-3-yl)-7-[1-hydrazinocarbonyl-6-(4-fluorophenyl)indol-3-ylcarbonyl]-1H,3H-pyrrolo[1,2-c]thiazole] | 25 nM
CCS(=O)(=O)n1cc(C(=O)c2ccn3c2CSC3c2cccnc2)c2ccc(-c3ccc(F)cc3)cc21 (centres unmarked) [Example 71, 3-(Pyridin-3-yl)-7-[1-ethanesulfonyl-6-[4-fluorophenyl)indol-3-ylcarbonyl]-1H,3H-pyrrolo[1,2-c]thiazole] | 244 nM
